{"source": "patent US20200085918A1", "about": "“COMPOSITIONS AND METHODS FOR TREATMENT OF UREMIC CARDIOMYOPATHY” (priority 2016, published 2020)", "key": {"HO-1 [1]": {"test_system": "HO-1", "assay": "HO-1 expression in primary cardiac fibroblasts", "type": "cell-based, mouse", "conditions": "24 h", "procedure": "(§1) Western Blotting Analysis: Cardiac (left ventricle) tissue samples and cardiac fibroblast homogenates were prepared and analyzed as was previously described for collagen-1 and other proteins. Assessment of protein carbonylation and activation of c-Src and ERK1/2 was performed as was described previously. Multiple exposures were analyzed to assure that the signals were within the linear range of the film. The signal density was determined using NIH ImageJ 1.48v software. Polyclonal antibody against type I collagen was from Southern Biotech (Birmingham, Ala.). Polyclonal anti-Src [pY418] phosphospecific antibody was from Invitrogen (Camarillo, Calif.). Monoclonal antibody against total c-Src was from Santa Cruz (Santa Cruz, Calif.). 2,4-dinitrophenylhydrazine (DNPH) and antibody against 2,4-dinitrophenyl (DNP) hydrazone derivatives were from Sigma-Aldrich.\n(§2) Experimental design for in vitro experiment: C57BL/6 mouse primary cardiac fibroblast cells (purchased from Cell Biologics, Inc., Chicago, Ill.) were resuspended in complete fibroblast medium with supplements and 10% FBS (Cell Biologics, Inc.). The cultures were maintained at 37° C. in a 5% CO2 incubator and the medium was changed after 48 h and every 2-3 days thereafter. Cardiac fibroblast cells (passage 3-4) were grown until over confluent and were serum-starved (with 1% FBS) overnight before being used for the experiments. […]"}, "[2]": {"test_system": "PNx-induced cardiomyopathy, C57BL/6 mice", "assay": "Transthoracic echocardiography, PNx mice (effects of CoPP and pNaKtide on PNx-induced cardiomyopathy)", "type": "in vivo, mouse", "conditions": "PNX + CoPP (5 mg/kg BW ip), n = 15, mean ± SE", "procedure": "Experimental designs: Male C57BL/6 10-12 weeks were purchased from Hill Top Laboratories and housed in pathogen free animal facility in designated rooms equipped with cages that supply purified air under a 12 hour light/dark cycle. Food and water were supplied ad libitum. Animal protocol was approved by the Marshall University Institutional Animal Care and Use Committee. The number of animals in each group was determined by Power analysis using the following assumptions derived from a previous study with mice, with variance of 0.2 within the groups, power of 0.80, and alpha error of 0.05. Effects of CoPP and […] on PNx-induced cardiomyopathy: Cobalt protoporphyrin (CoPP, Frontier Scientific, Logan, Utah) was used to induct HO-1 expression and […] was used to block the Na/K-ATPase signaling function. […] Transthoracic Echocardiography: Transthoracic echocardiography was performed 24 hours before sacrifice. […] Mice in supine position were placed on a heating pad to keep the body temperature at 37° C. Body core temperature and ECG for physiological monitoring were obtained and manipulated by using a Visualsonics Mouse Handling Table (11436) and a rectal thermometer. Echocardiographic images were captured using MS400: 18-38 MHz operating frequency MicroScan transducer attached to a Vevo 1100 Imaging System (FUJIFILM VisualSonics Inc.). Warmed echo gel was placed between the probe and shaved chest. B-mode and M-mode images of the heart were obtained from parasternal long axis and short axis. PW Doppler and Color Doppler were obtained from basal short axis. The average values were calculated from at least four consecutive cardiac cycles. Left-ventricular end-diastolic area (EDA), end-systolic area (ESA), as well as main pulmonary artery diameter was measured from B-mode. End-diastolic diameters (EDD), end-systolic diameters (ESD), as well as anterior and posterior wall thickness (AWT & PWT) were captured from M-mode. Isovolumic contraction and relaxation time (IVCT & IVRT), ejection time (ET), as well as pulmonary velocity time integral (VTI) were obtained from PW and color Doppler."}, "HO-1 [3]": {"test_system": "HO-1", "assay": "HO-1 expression in left ventricle homogenates (western blot), CoPP and pNaKtide study", "type": "in vivo, mouse", "conditions": "CoPP 5 mg/kg BW ip", "procedure": "as §1"}, "protein carbonylation [4]": {"test_system": "protein carbonylation", "assay": "Protein carbonylation in left ventricle homogenates, CoPP and pNaKtide study", "type": "in vivo, mouse", "conditions": "PNx + CoPP 5 mg/kg BW ip; p<0.01 vs PNx", "procedure": "as §1"}, "PNx mice [5]": {"test_system": "PNx mice", "assay": "Heart weight/body weight ratio, CoPP and pNaKtide study", "type": "in vivo, mouse", "conditions": "PNx + CoPP 5 mg/kg BW ip", "description": "Nephrectomy Mouse Model: The PNx model included two-step surgeries. […] Step-two surgery was operated 7 days later, in which the right kidney was removed. For sham surgery, the two-step surgeries were performed in the same way as in the PNx group, without ligation of left kidney and removal of right kidney.\nCoPP injections were given 5 days prior to, and on the day of, surgery, as well as every 5 days thereafter until sacrificing."}, "PNx mice [6]": {"test_system": "PNx mice", "assay": "Renal function: plasma cystatin C, creatinine and BUN, CoPP and pNaKtide study", "type": "in vivo, mouse", "conditions": "PNx + CoPP 5 mg/kg BW ip", "procedure": "Measurement of plasma cystatin C, creatinine and blood urea nitrogen (BUN): Mouse cystatin C ELISA kit and mouse creatinine kit were obtained from Crystal Chem. Inc. (Downers Grove, Ill.). Mouse BUN ELISA kit was obtained from MyBioSource Inc (San Diego, Calif.). The measurements were performed following manufacturers' instructions. Each sample was tested in duplicate."}, "ERK1/2 [7]": {"test_system": "ERK1/2", "assay": "ERK1/2 activation (phosphor-ERK/total ERK) in primary cardiac fibroblasts", "type": "cell-based, mouse", "procedure": "as §1, §2"}, "protein carbonylation [8]": {"test_system": "protein carbonylation", "assay": "Protein carbonylation in primary cardiac fibroblasts", "type": "cell-based, mouse", "procedure": "as §1, §2"}, "ERK1/2 [9]": {"test_system": "ERK1/2", "assay": "ERK1/2 activation in left ventricle homogenates, CoPP and pNaKtide study", "type": "in vivo, mouse", "conditions": "PNx + CoPP 5 mg/kg BW ip, 4 weeks after PNx; p<0.01 vs PNx", "procedure": "as §1"}, "c-Src [10]": {"test_system": "c-Src", "assay": "c-Src activation (pY418 c-Src/total c-Src) in primary cardiac fibroblasts", "type": "cell-based, mouse", "procedure": "as §1, §2"}, "collagen-1 [11]": {"test_system": "collagen-1", "assay": "Collagen-1 expression in left ventricle homogenates (western blot), CoPP and pNaKtide study", "type": "in vivo, mouse", "conditions": "LV homogenates; PNx + CoPP 5 mg/kg BW ip; p<0.01 vs PNx", "procedure": "as §1"}, "c-Src [12]": {"test_system": "c-Src", "assay": "c-Src activation in left ventricle homogenates, CoPP and pNaKtide study", "type": "in vivo, mouse", "conditions": "PNx + CoPP 5 mg/kg BW ip, 4 weeks after PNx; p<0.01 vs PNx", "procedure": "as §1"}, "TBARS": {"test_system": "TBARS", "assay": "Thiobarbituric acid reactive substances (TBARS) in treated PNx mice", "type": "in vivo, mouse", "conditions": "PNx + CoPP 5 mg/kg BW ip"}, "collagen-1 [13]": {"test_system": "collagen-1", "type": "cell-based, mouse", "procedure": "as §1\nExperimental design for in vitro experiment: C57BL/6 mouse primary cardiac fibroblast cells (purchased from Cell Biologics, Inc., Chicago, Ill.) were resuspended in complete fibroblast medium with supplements and 10% FBS (Cell Biologics, Inc.). The cultures were maintained at 37° C. in a 5% CO2 incubator and the medium was changed after 48 h and every 2-3 days thereafter. Cardiac fibroblast cells (passage 3-4) were grown until over confluent and were serum-starved (with 1% FBS) overnight before being used for the experiments. Cells were treated with or without TCB (100 nM) to determine procollagen-1 and HO-1 expression (24 h treatment), and c-Src activation and protein carbonylation (1 h treatment)."}, "[14]": {"test_system": "PNx-induced cardiac fibrosis", "assay": "Cardiac fibrosis by Sirius Red/Fast Green staining, CoPP and pNaKtide study", "type": "in vivo, mouse", "conditions": "PNx + CoPP 5 mg/kg BW ip; p<0.01 vs. PNx", "procedure": "Effects of CoPP and […] on PNx-induced cardiomyopathy: Cobalt protoporphyrin (CoPP, Frontier Scientific, Logan, Utah) was used to induct HO-1 expression and […] was used to block the Na/K-ATPase signaling function. […] Sirius Red/Fast Green staining: Histology staining for collagen fiber was performed on tissues harvested with Sirius Red/Fast Green Collagen Staining solutions (Sigma-Aldrich) according to the manufacturer's protocol. Tissues preparation, fixation, and data analysis were conducted as previously described."}, "[15]": {"conditions": "CoPP 5 μM, 24 h pre-treatment, TCB 100 nM 1 h"}, "[16]": {"conditions": "TCB 100 nM, 1 h, cardiac fibroblasts"}}, "data": [{"smiles": "C=CC1=C(C)c2cc3[n-]c(cc4nc(cc5[n-]c(cc1n2)c(C)c5CCC(=O)[O-])C(CCC(=O)[O-])=C4C)c(C)c3C=C.[Co+2].[H+].[H+]", "note": "[CoPP, cobalt protoporphyrin]", "values": [{"measurement": "HO-1 induction", "setting": "HO-1 [1]; CoPP 5 μM, compared with TCB", "result": "considerably greater"}, {"measurement": "AWT, anterior wall thickness", "setting": "[2]", "result": "0.65 ± 0.01^$$ mm"}, {"measurement": "CO, cardiac output", "setting": "[2]", "result": "10.5 ± 0.3", "unit": "mL/min"}, {"measurement": "EDA, end diastolic area", "setting": "[2]", "result": "27.2 ± 0.6", "unit": "mm^2"}, {"measurement": "EDD, end diastolic dimension", "setting": "[2]", "result": "4.4 ± 0.1", "unit": "mm"}, {"measurement": "EF, ejection fraction", "setting": "[2]", "result": "60.0 ± 2.9", "unit": "%"}, {"measurement": "ESA, end systolic area", "setting": "[2]", "result": "19.0 ± 0.1", "unit": "mm^2"}, {"measurement": "ESD, end systolic dimension", "setting": "[2]", "result": "3.2 ± 0.1", "unit": "mm"}, {"measurement": "ET, ejection time", "setting": "[2]", "result": "44 ± 1.0", "unit": "ms"}, {"measurement": "FS, fractional shortening", "setting": "[2]", "result": "26.8 ± 1.7", "unit": "%"}, {"measurement": "HR, heart rate", "setting": "[2]", "result": "453 ± 11", "unit": "beat/min"}, {"measurement": "IVCT + IVRT, isovolumic contraction time + isovolumic relaxation time", "setting": "[2]", "result": "21 ± 0.7^$$ msec"}, {"measurement": "LVMI, left ventricle mass index", "setting": "[2]", "result": "4.0 ± 0.1^$$"}, {"measurement": "PWT, posterior wall thickness", "setting": "[2]", "result": "0.59 ± 0.02^$$ mm"}, {"measurement": "PaD, pulmonary artery dimension", "setting": "[2]", "result": "1.0 ± 0.02", "unit": "mm"}, {"measurement": "PaVTI, pulmonary artery Velocity time integral", "setting": "[2]", "result": "29.9 ± 0.5^$"}, {"measurement": "HO-1 expression in the LV homogenates", "setting": "HO-1 [3]", "result": "induced HO-1 expression most profoundly"}, {"measurement": "PNx-induced protein carbonylation in LV homogenates", "setting": "protein carbonylation [4]", "result": "reduced"}, {"measurement": "increase in heart weight/body weight ratio with PNx", "setting": "PNx mice [5]", "result": "not"}, {"measurement": "renal function as assessed by plasma cystatin C, creatinine, and BUN", "setting": "PNx mice [6]", "result": "neither CoPP nor pNaKtide effected significant changes"}, {"measurement": "TCB induced activation of ERK1/2", "setting": "ERK1/2 [7]; [15]", "result": "attenuated"}, {"measurement": "TCB induced protein carbonylation", "setting": "protein carbonylation [8]; [15]", "result": "attenuated"}, {"measurement": "activation of ERK1/2 in LV homogenates", "setting": "ERK1/2 [9]", "result": "attenuated"}, {"measurement": "TCB induced activation of c-Src", "setting": "c-Src [10]; [15]", "result": "attenuated"}, {"measurement": "PNx-induced increases in cardiac collagen-1 expression", "setting": "collagen-1 [11]", "result": "reduced"}, {"measurement": "activation of c-Src in LV homogenates", "setting": "c-Src [12]", "result": "attenuated"}, {"measurement": "TBARS", "setting": "TBARS", "result": "consistent with the carbonylation data"}, {"measurement": "collagen-1 expression at baseline", "setting": "collagen-1 [13]; CoPP 5 μM, 24 h, no TCB, C57BL/6 mouse primary cardiac fibroblasts", "result": "did not significantly affect"}, {"measurement": "TCB induced increases in collagen-1 expression", "setting": "collagen-1 [13]; CoPP 5 μM, 24 h pre-treatment, TCB 100 nM 24 h, p<0.01 vs TCB alone", "result": "significantly ameliorated"}, {"measurement": "PNx-induced cardiac fibrosis, Sirius Red/Fast Green staining", "setting": "[14]", "result": "significantly attenuated"}]}, {"smiles": "C[C@]12CC[C@H](O)C[C@@]1(O)CC[C@@H]1[C@@H]2CC[C@]2(C)[C@@H](c3ccc(=O)oc3)CC[C@]12O", "note": "[TCB, telecinobufagin]", "values": [{"measurement": "HO-1 expression", "setting": "HO-1 [1]; TCB 100 nM", "result": "increased"}, {"measurement": "activation of ERK1/2", "setting": "ERK1/2 [7]; [16]", "result": "induced activation"}, {"measurement": "protein carbonylation", "setting": "protein carbonylation [8]; [16]", "result": "induced activation"}, {"measurement": "activation of c-Src", "setting": "c-Src [10]; [16]", "result": "induced activation"}, {"measurement": "type I collagen (collagen-1) expression", "setting": "collagen-1 [13]; TCB 100 nM, 24 h, vs control, C57BL/6 mouse primary cardiac fibroblasts, p<0.01", "result": "induced increases"}]}]}
